Results as given in patent US6287840A (Axys Pharmaceuticals, Inc., priority 1999, dated 2001).
pKi: −log10 of the molar value. Like-named read-outs stand apart in the source and are kept apart here.

Key:
[1] = target: cruzain, from T. cruzi (Trypanosoma cruzi, UniProt P25779); assay: Inhibition of cruzain, as for cathepsin L; assay type: biochemical; details: for k/KI (kirr/KI): values without asterisk; for kobs /[I]* (approximate second-order inactivation constant): values marked *
Procedure, shortened: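 Run as for cathepsin L with 1 nM cruzain in 50 mM phosphate pH […], 2.5 mM DTT, 2.5 mM EDTA, 5 μM Z-Phe-Arg-AMC, at 25 °C, inhibitors 30-0.001 μM; fluorescence (ex 380/em 460 nm) followed continuously. kobs fitted from progress curves and kobs/[I] reported; selected compounds gave kirr, KI, kirr/KI, with KI corrected by (1+[S]/Km).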

[2] = system: mouse malarial parasite Plasmodium vinckei; assay: In vitro protease activity of malarial parasite, substrate Z-Phe-Arg-AMC; assay type: biochemical; details: read-out: P. vinckei IC50 (murine)
Source text: (§1) The following table summarizes the comparative IC50 values for selected cysteine protease inhibitors against the human malarial parasite Plasmodium falciparum and the mouse malarial parasite Plasmodium vinckei. The substrate used to measure in vitro protease activity was Z-Phe-Arg-AMC.

[3] = system: human malarial parasite Plasmodium falciparum; assay: as above; assay type: biochemical; details: cells printed in nM; read-out: P. falciparum IC50 (human)
Source text: as §1

[4] = target: T1, Cathepsin B from human placenta (Homo sapiens, UniProt P07858); assay: Inhibition of cathepsin B, Z-Arg-Arg-AMC fluorescence progress curves; assay type: biochemical; details: for k/KI (kirr/KI): values without asterisk
T1 construct: Cathepsin B from human placenta, obtained from Sigma; purchased Sigma; host or cells: human placenta (tissue)
Procedure, shortened: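 Human placental enzyme (~10 nM) in 50 mM phosphate pH 6.2 with 2.5 mM DTT and 2.5 mM EDTA, 50 μM Z-Arg-Arg-AMC, inhibitors 30-0.001 μM, 25° C. AMC fluorescence (ex 380/em 460 nm) progress curves fitted for kobs; kobs/[I] reported, with kirr, KI and kirr/KI substrate-corrected for selected compounds.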

[5] = system: Leishmania donovani amastigote infected mouse peritoneal macrophages; assay: In vitro antiprotozoal activity, Leishmania donovani; assay type: cell-based
Procedure: (§2) In this table, the in vitro antiprotozoal activities of the indicated compounds were measured as percentage inhibition of Leishmania donovani amastigote infecteda mouse peritoneal macrophages, Trypanosoma cruzi amastigote infected macrophages, and Trypanosoma brucei extracellular bloodstream forms.

[6] = target: T2, Cloned cathepsin S (Homo sapiens, UniProt P25774); assay: Inhibition of cathepsin S, Z-Val-Val-Arg-AMC fluorescence progress curves; assay type: biochemical; details: for k/KI (kirr/KI): values without asterisk; for k/KI (kirr/KI) / kobs /[I]* (approximate second-order inactivation constant): 25° C., pH 6.5; for kobs /[I]* (approximate second-order inactivation constant): values marked *
T2 construct: made in house
T2 sequence (P25774 115-331): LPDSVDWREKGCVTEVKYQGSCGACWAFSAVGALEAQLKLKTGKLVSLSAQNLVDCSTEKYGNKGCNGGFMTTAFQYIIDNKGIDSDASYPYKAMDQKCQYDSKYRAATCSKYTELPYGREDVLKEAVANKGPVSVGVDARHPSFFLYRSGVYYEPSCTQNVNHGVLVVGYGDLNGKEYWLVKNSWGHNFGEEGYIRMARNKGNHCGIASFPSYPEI
Procedure, shortened: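 Progress curves at 25 °C in 100 mM phosphate pH 6.5, 2.5 mM DTT, 2.5 mM EDTA, 0.01% Triton, enzyme <1 nM, 10 μM substrate, inhibitors 30-0.001 μM; AMC fluorescence ex 380/em 460 nm. kobs from nonlinear fits gave kobs/[I]; selected compounds yielded kirr, KI (substrate-corrected), kirr/KI.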

[7] = system: Trypanosoma brucei extracellular bloodstream forms; assay: In vitro antiprotozoal activity, Trypanosoma brucei; assay type: cell-based
Procedure: as §2

[8] = target: T3, Cathepsin L from rat liver (Rattus norvegicus, UniProt P07154); assay: Inhibition of cathepsin L, Z-Phe-Arg-AMC fluorescence progress curves; assay type: biochemical; details: for k/KI (kirr/KI): values without asterisk; for k/KI (kirr/KI) / kobs /[I]* (approximate second-order inactivation constant): 25° C., pH 6.2; for kobs /[I]* (approximate second-order inactivation constant): values marked *
T3 construct: Cathepsin L from rat liver; from tissue; host or cells: rat liver
T3 sequence (P07154 114-288 limits assumed): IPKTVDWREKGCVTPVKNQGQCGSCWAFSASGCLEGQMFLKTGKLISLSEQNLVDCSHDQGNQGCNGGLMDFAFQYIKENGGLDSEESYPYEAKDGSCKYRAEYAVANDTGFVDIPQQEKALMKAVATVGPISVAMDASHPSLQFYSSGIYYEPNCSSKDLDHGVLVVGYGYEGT
T3 sequence (P07154 291-334 limits assumed): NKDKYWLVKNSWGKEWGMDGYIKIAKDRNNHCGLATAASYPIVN
Procedure, shortened: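 Progress curves of AMC release (380/460 nm) over at least 3 inactivation half-times were fitted to kobs, reported as kobs/[I] or, via 1/[I] vs 1/kobs, kirr, KI (substrate-corrected) and kirr/KI.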

[9] = system: Trypanosoma cruzi amastigote infected macrophages; assay: In vitro antiprotozoal activity, Trypanosoma cruzi; assay type: cell-based
Procedure: as §2

[10] = system: T. cruzi; assay: T. cruzi infected irradiated J774 cells; assay type: cell-based; parameters: dose or concentration left out as unconfirmed; details: thereafter without inhibitor; compounds listed in decreasing order of effectiveness
Procedure: Irradiated J774 cells were infected with T. cruzi and simultaneously treated with […] of peptidyl vinyl derivatives for 5 days; thereafter without inhibitor. The following compounds were effective in decreasing order: Mu-Phe-ArgVSPh, Boc-Tyr(I2)-HphVSPh, Mu-Phe-VaIVSPh, Boc-Tic-HphVSPh, Mu-Phe-Ser(OBzl)VSPh, Mu-Leu-HphVSPh, Mu-Tyr(I2)-HphVSPh, Mu-Phe-LysVSPh, Mu-Tic-HphVSPh.

[11] = system: calpain; assay: Inhibition (inactivation) of calpain, Suc-Leu-Tyr-AMC; assay type: biochemical; details: pH 7.5, 5 mM CaCl2, 25° C.; for k/KI (kirr/KI): values without asterisk
Procedure: The inhibitors were tested against calpain at 1 or 2% as for the other enzymes. The reaction conditions were 50 mM Tris, pH 7.5, 5 mM CaCl2, 2.5 mM DTT, assayed at 25° C. The substrate was 100 μM Suc-Leu-Tyr-AMC.

cruzain, from T. cruzi, sequence (P25779 123-337 limits assumed): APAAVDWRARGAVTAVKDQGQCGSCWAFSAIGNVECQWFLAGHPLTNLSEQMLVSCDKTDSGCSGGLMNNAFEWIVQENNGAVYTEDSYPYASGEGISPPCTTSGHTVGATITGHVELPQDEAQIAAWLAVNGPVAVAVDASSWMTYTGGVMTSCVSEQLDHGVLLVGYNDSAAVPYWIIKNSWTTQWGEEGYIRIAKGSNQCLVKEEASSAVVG

For O=C(NCCCC[C@@H](/C=C/S(=O)(=O)c1ccccc1)NC(=O)[C@H](Cc1ccccc1)NC(=O)N1CCOCC1)OCc1ccccc1 [Mu-Phe-Lys(Z)VSPh, (S)-(E)-7-(benzyloxycarbonyl)amino-3-(4-morpholinecarbonylphenylalanyl)-amino-1-phenylsulfonyl-1-heptene], the “k/KI (kirr/KI)” value [1] was 44,500 M^-1 sec^-1, the IC50 ([2]; cells printed in nM) was 80 nM and the IC50 [3] was 100 nM. The kirr [4] was 0.18 s⁻¹, the pKi ([4]; corrected for substrate) was 5.33 and the “k/KI (kirr/KI)” value ([4]; 25° C., pH 6.2) was 39,200 M^-1 sec^-1. For the same compound, the “percentage inhibition, L. donovani” value ([5]; 3 uM) was 0%, the “percentage inhibition, L. donovani” value ([5]; 10 uM) was 0% and the “percentage inhibition, L. donovani” value ([5]; 30 uM) was 0%. For the same compound, the “percentage inhibition, L. donovani” value ([5]; 90 uM) was 0%, the kirr [6] was 0.14 s⁻¹ and the pKi ([6]; corrected for substrate) was 7.27. For the same compound, the “k/KI (kirr/KI)” value [6] was 2,600,000 M^-1 sec^-1, the “ED50, T. brucei” value [7] was 3640 nM and the “percentage inhibition, T. brucei” value ([7]; 1 uM) was 19.8%. The “percentage inhibition, T. brucei” value ([7]; 3 uM) was 29.9%, the “percentage inhibition, T. brucei” value ([7]; 10 uM) was 81.3% and the “percentage inhibition, T. brucei” value ([7]; 30 uM) was 100%. The “percentage inhibition, T. brucei” value ([7]; 90 uM) was 100%, the kirr [8] was 0.45 s⁻¹ and the pKi ([8]; corrected for substrate) was 5.42. For the same compound, the “k/KI (kirr/KI)” value [8] was 120,000 M^-1 sec^-1, the “percentage inhibition, T. cruzi” value ([9]; 3 uM) was 0% and the “percentage inhibition, T. cruzi” value ([9]; 10 uM) was 0%. For the same compound, the “percentage inhibition, T. cruzi” value ([9]; 30 uM) was 0% and the “percentage inhibition, T. cruzi” value ([9]; 90 uM) was 0%.

In the case of “(S)-(E)-3-[4-tert-butoxycarbonyl-(3,5-diiodotyrosyl)]-amino-5-phenyl-1-phenylsulfonyl-1-pentene [Boc-Tyr(I2)-HphVSPh]”, the “kobs /[I]* (approximate second-order inactivation constant)” value [1] was 280,000 M^-1 sec^-1, the “kobs /[I]* (approximate second-order inactivation constant)” value ([4]; values marked *, 25° C., pH 6.2) was 1400 M⁻¹ s⁻¹ and the “effectiveness against T. cruzi in J774 cells” value [10] was “effective”. The “kobs /[I]* (approximate second-order inactivation constant)” value [6] was 210,000 M^-1 sec^-1, the “kobs /[I]* (approximate second-order inactivation constant)” value [8] was 105,000 M^-1 sec^-1 and the “k/KI (kirr/KI)” value [11] was 0 M⁻¹ s⁻¹.

With “(S)-(E)-Benzyl 4-(4-morpholinecarbonylphenylalanyl)amino-6-phenyl-2-hexenamide [Mu-Phe-HphVAMBzl]” the “kobs /[I]* (approximate second-order inactivation constant)” value [1] was 70,200 M^-1 sec^-1, the IC50 ([2]; cells printed in μM) was 2000 nM and the IC50 [3] was 200 nM. For the same compound, the “k/KI (kirr/KI)” value ([4]; 25° C., pH 6.2) was less than 100 M⁻¹ s⁻¹, the “percentage inhibition, L. donovani” value ([5]; 3 uM) was 0% and the “percentage inhibition, L. donovani” value ([5]; 10 uM) was 0%. The “percentage inhibition, L. donovani” value ([5]; 30 uM) was 14.2%, the “percentage inhibition, L. donovani” value ([5]; 90 uM) was 23.3% and the “kobs /[I]* (approximate second-order inactivation constant)” value [6] was 10,800 M^-1 sec^-1. For the same compound, the “percentage inhibition, T. brucei” value ([7]; 3 uM) was 0%, the “percentage inhibition, T. brucei” value ([7]; 10 uM) was 0% and the “percentage inhibition, T. brucei” value ([7]; 30 uM) was 0%. For the same compound, the “percentage inhibition, T. brucei” value ([7]; 90 uM) was 0%, the “kobs /[I]* (approximate second-order inactivation constant)” value [8] was 2800 M⁻¹ s⁻¹ and the “kobs /[I]*” value ([11]; values marked * (or %)) was less than 50 M⁻¹ s⁻¹. The “percentage inhibition, T. cruzi” value ([9]; 3 uM) was 0%, the “percentage inhibition, T. cruzi” value ([9]; 10 uM) was 0% and the “percentage inhibition, T. cruzi” value ([9]; 30 uM) was 0%. For the same compound, the “percentage inhibition, T. cruzi” value ([9]; 90 uM) was 5.83%.

For “(S,S)-(E)-3-[tert-butoxycarbonyl-(1,2,3,4-tetrahydro-3-isoquinolinecarbonyl)]-amino-5-phenyl-1-phenylsulfonyl-1-pentene [Boc-Tic-HphVSPh]”, the “k/KI (kirr/KI)” value [1] was 30,000 M^-1 sec^-1, the “effectiveness against T. cruzi in J774 cells” value [10] was “effective” and the “k/KI (kirr/KI)” value [6] was 0 M⁻¹ s⁻¹. For the same compound, the “k/KI (kirr/KI)” value [8] was 0 M⁻¹ s⁻¹ and the “k/KI (kirr/KI)” value [11] was 0 M⁻¹ s⁻¹.
